Literature values as cited in patent publication US10463642B2, “Methods of treating heart failure diseases using prodrugs of methyl hydrogen fumarate” (priority 2016, dated 2019).
Counter-ions that a name gives are not always drawn. Like-named read-outs stand apart in the source and are kept apart here.

Tests used:
[1] = system: central nervous system (CNS) inflammation; conditions: murine EAE
[2] = system: central nervous system (CNS) inflammation; conditions: rat EAE
[3] = healthy subjects, steady state

Row | dose comparable to 240 mg DMF (Tecfidera) by comparing plasma levels of MHF [3] [mg] | Structure (SMILES) | CNS inflammation in EAE [1] | CNS inflammation in EAE [2]
1 |  | COC(=O)/C=C/C(=O)OC [DMF, Dimethyl fumarate] | inhibit | inhibit
2 | 400 | CCN(CC)C(=O)COC(=O)/C=C/C(=O)OC [XP23829, (N,N-diethylcarbamoyl)methyl methyl (2E)but-2-ene-1,4-dioate] |  | 
